Source: paper doi:10.1101/2025.10.29.685286v1 (biorxiv, 2025)

Molecular target: T1, NmGNAT (Nakamurella multipartita, UniProt C8XEF8)
T1 sequence (C8XEF8 1-164): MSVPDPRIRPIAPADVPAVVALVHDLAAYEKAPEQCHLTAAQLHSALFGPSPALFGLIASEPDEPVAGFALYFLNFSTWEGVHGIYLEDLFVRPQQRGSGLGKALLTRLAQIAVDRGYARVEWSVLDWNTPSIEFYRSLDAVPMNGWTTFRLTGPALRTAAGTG
Assay: microscale thermophoresis
Type: binding

Structure (SMILES) | Kd
CC(=O)SCCNC(=O)CCNC(=O)[C@H](O)C(C)(C)COP(=O)(O)OP(=O)(O)OC[C@H]1O[C@@H](n2cnc3c(N)ncnc32)[C@H](O)[C@@H]1OP(=O)(O)O [acetyl-CoA] | 18.9 ± 3.2 µM
NCCCC[C@H](N)C(=O)O [lysine] | 137 ± 4.2 µM
